# Laboratory results taken from patent publication US10647713B2 (Nimbus Lakshmi, Inc., priority 2016, dated 2020).
# Target: human TYK2 (JH2domain-pseudokinase) (Homo sapiens (Human), UniProt P29597)
# Experiment: TYK2 JH2 Domain Binding Assay (KINOMEscan, DiscoveRx)
# Conditions: 11-point dilution, duplicate
# Outline: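 Kd from duplicate 11-point 3-fold dilutions starting at 30,000 nM, fitted by Hill equation with slope fixed at −1. Compounds (final 0.9% DMSO) displace DNA-tagged HEK293-expressed TYK2 JH2 fusion (<0.1 nM) from ligand-coated beads over 1 h at room temperature; eluted kinase read by qPCR.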
# Sequence of human TYK2 (JH2domain-pseudokinase) (P29597 556-888): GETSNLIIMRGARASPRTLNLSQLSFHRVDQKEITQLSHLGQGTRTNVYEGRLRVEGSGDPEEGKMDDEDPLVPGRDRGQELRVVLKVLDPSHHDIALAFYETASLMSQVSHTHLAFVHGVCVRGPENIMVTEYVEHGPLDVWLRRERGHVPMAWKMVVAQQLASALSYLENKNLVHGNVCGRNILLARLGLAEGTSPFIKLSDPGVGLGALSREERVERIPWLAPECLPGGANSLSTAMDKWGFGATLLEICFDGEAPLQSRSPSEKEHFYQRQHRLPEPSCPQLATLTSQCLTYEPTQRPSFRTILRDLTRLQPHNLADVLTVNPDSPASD
row,Kd [nM],SMILES
1,0.1 to 0.5,"Cc1nc2c(Nc3ccc(F)cc3S(C)(=O)=O)cc(NC(=O)C3CC3)nc2[nH]1 [I-443, N-(7-((4-fluoro-2-(methylsulfonyl)phenyl)amino)-2-methyl-3H-imidazo[4,5-b]pyridin-5-yl)cyclopropanecarboxamide]"
2,1 to 10,"Cc1nc2c(Nc3ccc(-c4cncn4C)cc3N(C)S(C)(=O)=O)cc(NC(=O)[C@H]3CC3(F)F)nc2[nH]1 [I-275, (R)-2,2-difluoro-N-(2-methyl-7-((4-(1-methyl-1H-imidazol-5-yl)-2-(N-methylmethylsulfonamido)phenyl)amino)-3H-imidazo[4,5-b]pyridin-5-yl)cyclopropane-1-carboxamide]"
3,0.1 to 0.5,CN=S(C)(=O)c1cc(-c2ccn(C)n2)ccc1Nc1cc(NC(=O)C2CC2)nc2[nH]c(C)nc12 (stereo not shown) [I-640]
4,0.1 to 0.5,"Cc1nc(-c2ccc(Nc3cc(NC(=O)C4CC4)nc4[nH]c(C(F)F)nc34)c(N(C)S(C)(=O)=O)c2)n(C)n1 [I-164, N-(2-(difluoromethyl)-7-((4-(1,3-dimethyl-1H-1,2,4-triazol-5-yl)-2-(N-methylmethylsulfonamido)phenyl)amino)-3H-imidazo[4,5-b]pyridin-5-yl)cyclopropanecarboxamide]"
5,0.1 to 0.5,Cc1cc(-c2ccc(Nc3cc(Nc4cccc(C#N)n4)nc4[nH]c(C(F)F)nc34)c(S(C)(=O)=O)c2)nn1C [I-277]
6,1 to 10,"Cn1ccc(-c2ccc(Nc3cc(NC(=O)[C@H]4CC4(F)F)nc4[nH]c(C(F)F)nc34)c(S(C)(=O)=O)c2)n1 [I-238, (R)—N-(2-(difluoromethyl)-7-((4-(1-methyl-1H-pyrazol-3-yl)-2-(methylsulfonyl)phenyl)amino)-3H-imidazo[4,5-b]pyridin-5-yl)-2,2-difluorocyclopropane-1-carboxamide]"
7,< 0.1,Cc1nc2c(Nc3ccc(-c4ccn(C5CCOCC5)n4)cc3S(C)(=O)=O)cc(NC(=O)C3CC3)nc2[nH]1 [I-523]
8,0.1 to 0.5,"Cc1nc2c(Nc3ccc(-c4ccn(C)n4)cc3P(C)(C)=O)cc(NC(=O)C3CC3)nc2[nH]1 [I-430, N-(7-((2-(dimethylphosphoryl)-4-(1-methyl-1H-pyrazol-3-yl)phenyl)amino)-2-methyl-3H-imidazo[4,5-b]pyridin-5-yl)cyclopropanecarboxamide]"
9,0.1 to 0.5,"Cc1nc2c(Nc3ccc(-c4ccn(C)n4)cc3S(C)(=O)=O)cc(NC(=O)[C@@H]3CC3(F)F)nc2[nH]1 [I-239, (S)-2,2-difluoro-N-(2-methyl-7-((4-(1-methyl-1H-pyrazol-3-yl)-2-(methylsulfonyl)phenyl)amino)-3H-imidazo[4,5-b]pyridin-5-yl)cyclopropane-1-carboxamide]"
10,0.1 to 0.5,"Cc1nc2c(Nc3ccc(C4CCCCO4)cc3N(C)S(C)(=O)=O)cc(NC(=O)C3CC3)nc2[nH]1 (stereo not shown) [I-375, N-(2-methyl-7-((2-(N-methylmethylsulfonamido)-4-(tetrahydro-2H-pyran-2-yl)phenyl)amino)-3H-imidazo[4,5-b]pyridin-5-yl)cyclopropanecarboxamide]"
11,1 to 10,"COc1c(Nc2cc(Nc3cnc(C(C)(C)OC)c(C)n3)nc3[nH]c(C(F)F)nc23)cccc1-c1nnn(C)n1 [I-56, 2-(difluoromethyl)-N7-(2-methoxy-3-(2-methyl-2H-tetrazol-5-yl)phenyl)-N5-(5-(2-methoxypropan-2-yl)-6-methylpyrazin-2-yl)-3H-imidazo[4,5-b]pyridine-5,7-diamines]"
12,0.1 to 0.5,"COc1c(Nc2cc(Nc3ccc(N4CCC4)c(C#N)n3)nc3[nH]c(C(F)F)nc23)cccc1-c1nnn(C)n1 [I-40, 3-(azetidin-1-yl)-6-((2-(difluoromethyl)-7-((2-methoxy-3-(2-methyl-2H-tetrazol-5-yl)phenyl)amino)-3H-imidazo[4,5-b]pyridin-5-yl)amino)picolinonitrile]"
13,1 to 10,"Cc1nc2c(Nc3ccc(C(F)(F)F)cc3S(C)(=O)=O)cc(NC(=O)C3CC3)nc2[nH]1 [I-259, N-(2-methyl-7-((2-(methylsulfonyl)-4-(trifluoromethyl)phenyl)amino)-3H-imidazo[4,5-b]pyridin-5-yl)cyclopropanecarboxamide]"
14,0.1 to 0.5,"CS(=O)(=O)c1cc(-c2ccn(C3CC3)n2)ccc1Nc1cc(NC(=O)C2CC2)nc2[nH]c(C(F)F)nc12 [I-287, N-(7-((4-(1-cyclopropyl-1H-pyrazol-3-yl)-2-(methylsulfonyl)phenyl)amino)-2-(difluoromethyl)-3H-imidazo[4,5-b]pyridin-5-yl)cyclopropanecarboxamide]"
15,0.1 to 0.5,"Cc1cn(C)nc1-c1ccc(Nc2cc(NC(=O)[C@H]3C[C@H]3F)nc3[nH]c(C(F)F)nc23)c(S(C)(=O)=O)c1 [I-407, (1R,2R)—N-(2-(difluoromethyl)-7-((4-(1,4-dimethyl-1H-pyrazol-3-yl)-2-(methylsulfonyl)phenyl)amino)-3H-imidazo[4,5-b]pyridin-5-yl)-2-fluorocyclopropane-1-carboxamide]"
16,0.5 to 1,"Cc1nc2c(Nc3ccc(-c4cncn4C)cc3N(C)S(C)(=O)=O)cc(NC(=O)C3CC3(F)F)nc2[nH]1 (stereo not shown) [I-384, 2,2-difluoro-N-(2-methyl-7-((4-(1-methyl-1H-imidazol-5-yl)-2-(N-methylmethylsulfonamido)phenyl)amino)-3H-imidazo[4,5-b]pyridin-5-yl)cyclopropane-1-carboxamide]"
17,0.1 to 0.5,"Cc1nc2c(Nc3ccc(Cl)cc3N(C)S(C)(=O)=O)cc(Nc3cccc(C#N)n3)nc2[nH]1 [I-134, N-(5-chloro-2-((5-((6-cyanopyridin-2-yl)amino)-2-methyl-3H-imidazo[4,5-b]pyridin-7-yl)amino)phenyl)-N-methylmethanesulfonamide]"
18,1 to 10,"CS(=O)(=O)c1cc([C@@H]2CCCCO2)ccc1Nc1cc(Nc2cccc(C(F)(F)F)n2)nc2[nH]c(C(F)F)nc12 [I-518, (S)-2-(difluoromethyl)-N7-(2-(methylsulfonyl)-4-(tetrahydro-2H-pyran-2-yl)phenyl)-N5-(6-(trifluoromethyl)pyridin-2-yl)-3H-imidazo[4,5-b]pyridine-5,7-diamine]"

row,SMILES,Kd [nM]
1,"CS(=O)(=O)c1cc([C@H]2CCC(F)(F)CO2)ccc1Nc1cc(NC(=O)C2CC2)nc2[nH]c(C(F)F)nc12 [I-593, (R)—N-(2-(difluoromethyl)-7-((4-(5,5-difluorotetrahydro-2H-pyran-2-yl)-2-(methylsulfonyl)phenyl)amino)-3H-imidazo[4,5-b]pyridin-5-yl)cyclopropanecarboxamide]",1 to 10
2,"Cc1nc2c(Nc3ccc(C4CCC(C)(C)CO4)cc3S(C)(=O)=O)cc(Nc3cnc(C)c(C)n3)nc2[nH]1 (stereo not shown) [I-601, N5-(5,6-dimethylpyrazin-2-yl)-N7-(4-(5,5-dimethyltetrahydro-2H-pyran-2-yl)-2-(methylsulfonyl)phenyl)-2-methyl-3H-imidazo[4,5-b]pyridine-5,7-diamine]",0.5 to 1
3,"Cn1ccc(-c2ccc(Nc3cc(NC(=O)C4CC4)nc4[nH]c(C(F)F)nc34)c(P(C)(C)=O)c2)n1 [I-429, N-(2-(difluoromethyl)-7-((2-(dimethylphosphoryl)-4-(1-methyl-1H-pyrazol-3-yl)phenyl)amino)-3H-imidazo[4,5-b]pyridin-5-yl)cyclopropanecarboxamide]",< 0.1
4,"CS(=O)(=O)c1cc([C@H]2CCCCO2)ccc1Nc1cc(NC(=O)[C@H]2CC2(F)F)nc2[nH]c(C(F)F)nc12 [I-326, N-(2-(difluoromethyl)-7-((2-(methylsulfonyl)-4-((R)-tetrahydro-2H-pyran-2-yl)phenyl)amino)-3H-imidazo[4,5-b]pyridin-5-yl)-2,2-difluorocyclopropane-1-carboxamide]",1 to 10
